Reference: patent publication US11458189B2, “Cytoprotective drugs” (BALMES TRANSPLANTATION, priority 2017, dated 2022)
Starred links: 1 amine or outer side, 2 acyl side, 3 side chain; linkers in the order of their positions; H or OH if unused. Positions of bridges follow the written chain, without caps; N, C: chain ends. Non-standard residues stand in square brackets, D forms with d. Residues, ends and D or L forms follow the SMILES beside them. *: point of attachment. hTyr(3S-OH,4S-OH,3'-OSO3H) = N[C@H](C(=O)O)[C@H](O)[C@@H](O)c1ccc(O)c(OS(=O)(=O)O)c1; Orn(4R-OH,5R-OH) = O=C([C@H](C[C@@H](O)[C@@H](O)N[*:3])N[*:1])[*:2]; Pro(3S-OH,4S-Me) = C[C@H]1CN[C@H](C(=O)O)[C@H]1O; X1 = CCCCCOc1ccc(-c2cc(-c3ccc(C(=O)*)cc3)no2)cc1; Gln(3R-OH) = NC(=O)C[C@@H](O)[C@H](N)C(=O)O; Hyp = O=C(O)[C@@H]1C[C@@H](O)CN1

System: Human Renal Glomerular Endothelial Cells (HRGEC)
Test: Oxygen and glucose deprivation followed by replenishment, cell survival (calcein AM), HRGEC
Format: cell-based
Procedure: Anidulafungin and micafungin were tested on Human Renal Glomerular Endothelial Cells (HRGEC, Innoprot P10665), on Human Renal Proximal Tubular Epithelial Cells (HRPTEpiC, Innoprot P10662), on Human Astrocytes (HA, caltag SC-1800), on Human Cardiac Microvascular Endothelial Cells (HCMEC, Caltag SC-6000), on Human Hepatic Sinusoidal Endothelial Cells (HHSEC, Caltag SC-5000), on Rat Primary Kidney Glomerular Endothelial cells (Cellbiologics, RN-6014G) and on Bovine Brain Microvascular Endothelial Cells (BBMEC, Caltag SC-B100).
In a first phase, these isolated, purified and cryopreserved cells are thawed and multiplied according to the supplier's recommendations in T75 or T175 flasks pre-coated with 2 μg of fibronectin/[…] (CORNING) for HRGEC, HCMEC, HHSEC and BBMEC, or 2 μg poly-L-lysin/cm^2 (Caltag SC-0403) for HRPTEpiC and HA, or 15 mL/flask 175 cm^2 gelatin-based solution (Cellbiologics) in the presence of endothelial cell supplemented growth medium ECM (P60104, INNOPROT, Caltag, SC-1001) for HRGEC, HCMEC, HHSEC, RPKGEC or BBMEC, or astrocyte cell supplemented growth medium AM (Caltag SC-1801) for HA or epithelial cell supplemented growth medium EpiCM (P60106, INNOPROT) for HRPTEpiC, at 37° C. under 5% CO2 and saturated humidity until their confluency. They are then harvested by trypsinization according to the method described by the supplier for exactly 5 minutes and then reseeded in new flasks a maximum of three times.
To carry out the oxygen and glucose deprivation test followed by their replenishment, the cells will be seeded in 96-well black plates with transparent flat bottom (GREINER). Once a sufficient number of cells has been obtained to allow seeding of 2000 to 15000 cells per well of 96-well plates depending on the cell type, the cells are seeded in these 96-well plates previously coated with an extracellular matrix as listed above for the flasks. The cells are cultured for 5 to 8 days according to the cell type, in the presence of the same growth medium as in the flask as described above except for HRGEC and HRPTEpiC for which DMEM (DUTSCHER) with 1 g/L of supplemented glucose is used, at 37° C. under 5% CO2 and saturated humidity to obtain confluency.
On the first day of oxygen and glucose deprivation, (5th, 6th, 7th or 8th day of culture), the culture conditions are drastically changed. The medium of all plates is removed and replaced by DMEM (DUTSCHER) medium without glucose and supplemented only with 1% penicillin-streptomycin (DUTSCHER). Anidulafungin or micafungin dissolved in dimethyl sulfoxide (DMSO) is then added to each well at the desired concentration, resulting in a maximum of 1% DMSO, and the plates are placed under hypoxia at <1% 02 and 5% CO2 at 37° C. for 24 hours of culture. Each compound was tested in a concentration range.
After 24 hours, the growth medium is changed and replaced by a richer medium, DMEM (DUTSCHER) at 1 g/L glucose and 2% FBS (INNOPROT) and 1% penicillin-streptomycin (DUTSCHER). These media will have been pre-equilibrated at 37° C. in advance. The cells are then returned to culture at 37° C. under 20% 02 and 5% CO2 for 22h.
After 22 hours of reoxygenation, the potential protective effect of anidulafungin or micafungin is measured by a cell viability test using calcein AM (CORNING), which is a dye substrate. The calcein AM can easily cross the cell membrane of the viable cells. The AM ester groups mask the part of the molecule that chelates calcium. Once inside the cells, the (non-fluorescent) calcein AM is hydrolyzed to (fluorescent) calcein by endogenous esterases. The resulting calcein molecule binds to calcium inside the cell and remains trapped inside the cell. These molecules emit strong green fluorescence when subjected to […] of a particular wavelength (495 nm). Since dead cells lack esterase activity, only living cells are labelled.
This cell viability test is performed in two steps. […]

`CCCCCOc1ccc(-c2cc(-c3ccc(C(=O)N[C@H]4C[C@@H](O)[C@@H](O)NC(=O)[C@@H]5[C@@H](O)[C@@H](C)CN5C(=O)[C@H]([C@H](O)CC(N)=O)NC(=O)[C@H]([C@H](O)[C@@H](O)c5ccc(O)c(OS(=O)(=O)O)c5)NC(=O)[C@@H]5C[C@@H](O)CN5C(=O)[C@H]([C@@H](C)O)NC4=O)cc3)no2)cc1` [Micafungin, {5-[(1S,2S)-2-[(3S,6S,9S,11R,15S,18S,20R,21R,24S,25S,26S)-3-[(1R)-2-carbamoyl-1-hydroxyethyl]-11,20,21,25-tetrahydroxy-15-[(1R)-1-hydroxyethyl]-26-methyl-2,5,8,14,17,23-hexaoxo-18-[(4-{5-[4-(pentyloxy)phenyl]-1,2-oxazol-3-yl}benzene)amido]-1,4,7,13,16,22-hexaazatricyclo[22.3.0.0]heptacosan-6-yl]-1,2-dihydroxyethyl]-2-hydroxyphenyl}oxidanesulfonic acid] (X1-[Orn(4R-OH,5R-OH)]T[Hyp][hTyr(3S-OH,4S-OH,3'-OSO3H)][Gln(3R-OH)][Pro(3S-OH,4S-Me)]; lactam 1-C) was tested, and the “Globalfluo assay 1” value ([Micafungin] log μM −4) was 11181240 arbitrary units, the “Globalfluo assay 2” value ([Micafungin] log μM −4) was 11805530 arbitrary units and the “Globalfluo assay 3” value ([Micafungin] log μM −4) was 11095570 arbitrary units. For the same compound, the Mean globalfluo ([Micafungin] log μM −4) was 11360780 arbitrary units, the “Survival rate (%)” value ([Micafungin] log μM −4) was 37% and the “Globalfluo assay 1” value ([Micafungin] log μM −4.124939) was 12113050 arbitrary units. For the same compound, the “Globalfluo assay 2” value ([Micafungin] log μM −4.124939) was 11168770 arbitrary units, the “Globalfluo assay 3” value ([Micafungin] log μM −4.124939) was 11691720 arbitrary units and the Mean globalfluo ([Micafungin] log μM −4.124939) was 11657847 arbitrary units. For the same compound, the “Survival rate (%)” value ([Micafungin] log μM −4.124939) was 38%, the “Globalfluo assay 1” value ([Micafungin] log μM −4.30103) was 10705920 arbitrary units and the “Globalfluo assay 2” value ([Micafungin] log μM −4.30103) was 12585990 arbitrary units. The “Globalfluo assay 3” value ([Micafungin] log μM −4.30103) was 12661760 arbitrary units, the Mean globalfluo ([Micafungin] log μM −4.30103) was 11984557 arbitrary units and the “Survival rate (%)” value ([Micafungin] log μM −4.30103) was 40%. For the same compound, the “Globalfluo assay 1” value ([Micafungin] log μM −4.39794) was 12034270 arbitrary units, the “Globalfluo assay 2” value ([Micafungin] log μM −4.39794) was 11904770 arbitrary units and the “Globalfluo assay 3” value ([Micafungin] log μM −4.39794) was 11704580 arbitrary units. For the same compound, the Mean globalfluo ([Micafungin] log μM −4.39794) was 11881207 arbitrary units, the “Survival rate (%)” value ([Micafungin] log μM −4.39794) was 39% and the “Globalfluo assay 1” value ([Micafungin] log μM −4.522879) was 9416001 arbitrary units. The “Globalfluo assay 2” value ([Micafungin] log μM −4.522879) was 11987430 arbitrary units, the “Globalfluo assay 3” value ([Micafungin] log μM −4.522879) was 10070420 arbitrary units and the Mean globalfluo ([Micafungin] log μM −4.522879) was 10491284 arbitrary units. For the same compound, the “Survival rate (%)” value ([Micafungin] log μM −4.522879) was 34%, the “Globalfluo assay 1” value ([Micafungin] log μM −4.60206) was 10458840 arbitrary units and the “Globalfluo assay 2” value ([Micafungin] log μM −4.60206) was 10594720 arbitrary units. The “Globalfluo assay 3” value ([Micafungin] log μM −4.60206) was 8636463 arbitrary units, the Mean globalfluo ([Micafungin] log μM −4.60206) was 9896674 arbitrary units and the “Survival rate (%)” value ([Micafungin] log μM −4.60206) was 31%. For the same compound, the “Globalfluo assay 1” value ([Micafungin] log μM −4.69897) was 8790971 arbitrary units, the “Globalfluo assay 2” value ([Micafungin] log μM −4.69897) was 10993750 arbitrary units and the “Globalfluo assay 3” value ([Micafungin] log μM −4.69897) was 9050581 arbitrary units. For the same compound, the Mean globalfluo ([Micafungin] log μM −4.69897) was 9611767 arbitrary units, the “Survival rate (%)” value ([Micafungin] log μM −4.69897) was 30% and the “Globalfluo assay 1” value ([Micafungin] log μM −4.823909) was 9039973 arbitrary units. For the same compound, the “Globalfluo assay 2” value ([Micafungin] log μM −4.823909) was 8208392 arbitrary units, the “Globalfluo assay 3” value ([Micafungin] log μM −4.823909) was 7686254 arbitrary units and the Mean globalfluo ([Micafungin] log μM −4.823909) was 8311540 arbitrary units. For the same compound, the “Survival rate (%)” value ([Micafungin] log μM −4.823909) was 25%, the “Globalfluo assay 1” value ([Micafungin] log μM −5) was 5367938 arbitrary units and the “Globalfluo assay 2” value ([Micafungin] log μM −5) was 7594623 arbitrary units. For the same compound, the “Globalfluo assay 3” value ([Micafungin] log μM −5) was 5742300 arbitrary units, the Mean globalfluo ([Micafungin] log μM −5) was 6234954 arbitrary units and the “Survival rate (%)” value ([Micafungin] log μM −5) was 16%. The “Globalfluo assay 1” value ([Micafungin] log μM −5.09691) was 5198634 arbitrary units, the “Globalfluo assay 2” value ([Micafungin] log μM −5.09691) was 5680528 arbitrary units and the “Globalfluo assay 3” value ([Micafungin] log μM −5.09691) was 4518691 arbitrary units. The Mean globalfluo ([Micafungin] log μM −5.09691) was 5132618 arbitrary units, the “Survival rate (%)” value ([Micafungin] log μM −5.09691) was 11% and the “Globalfluo assay 1” value ([Micafungin] log μM −5.221849) was 5545222 arbitrary units. For the same compound, the “Globalfluo assay 2” value ([Micafungin] log μM −5.221849) was 4844574 arbitrary units, the “Globalfluo assay 3” value ([Micafungin] log μM −5.221849) was 4333143 arbitrary units and the Mean globalfluo ([Micafungin] log μM −5.221849) was 4907646 arbitrary units. The “Survival rate (%)” value ([Micafungin] log μM −5.221849) was 10%, the “Globalfluo assay 1” value ([Micafungin] log μM −5.39794) was 3889914 arbitrary units and the “Globalfluo assay 2” value ([Micafungin] log μM −5.39794) was 3964004 arbitrary units. The “Globalfluo assay 3” value ([Micafungin] log μM −5.39794) was 4064339 arbitrary units, the Mean globalfluo ([Micafungin] log μM −5.39794) was 3972752 arbitrary units and the “Survival rate (%)” value ([Micafungin] log μM −5.39794) was 7%. The “Globalfluo assay 1” value ([Micafungin] log μM −5.69897) was 3399775 arbitrary units, the “Globalfluo assay 2” value ([Micafungin] log μM −5.69897) was 3118863 arbitrary units and the “Globalfluo assay 3” value ([Micafungin] log μM −5.69897) was 3166056 arbitrary units. For the same compound, the Mean globalfluo ([Micafungin] log μM −5.69897) was 3228231 arbitrary units, the “Survival rate (%)” value ([Micafungin] log μM −5.69897) was 4% and the “Globalfluo assay 1” value ([Micafungin] log μM −6) was 3157528 arbitrary units. The “Globalfluo assay 2” value ([Micafungin] log μM −6) was 2851345 arbitrary units, the “Globalfluo assay 3” value ([Micafungin] log μM −6) was 2667237 arbitrary units and the Mean globalfluo ([Micafungin] log μM −6) was 2892037 arbitrary units. For the same compound, the “Survival rate (%)” value ([Micafungin] log μM −6) was 2%, the “Globalfluo assay 1” value ([Micafungin] log μM −6.30103) was 2192241 arbitrary units and the “Globalfluo assay 2” value ([Micafungin] log μM −6.30103) was 2496288 arbitrary units. The “Globalfluo assay 3” value ([Micafungin] log μM −6.30103) was 2306718 arbitrary units, the Mean globalfluo ([Micafungin] log μM −6.30103) was 2331749 arbitrary units and the “Survival rate (%)” value ([Micafungin] log μM −6.30103) was 0%. For the same compound, the “Globalfluo assay 1” value ([Micafungin] log μM −7) was 2276775 arbitrary units, the “Globalfluo assay 2” value ([Micafungin] log μM −7) was 2276419 arbitrary units and the “Globalfluo assay 3” value ([Micafungin] log μM −7) was 1622516 arbitrary units. For the same compound, the Mean globalfluo ([Micafungin] log μM −7) was 2058570 arbitrary units and the “Survival rate (%)” value ([Micafungin] log μM −7) was −1%.
